Source: ChEMBL document CHEMBL1201862, “PubChem BioAssay data set” (2004)
Calls of active or inactive are those of the source.

Columns and labels:
Type in all cases: functional
[1] = biological target: T1, Sentrin-specific protease 6 (Homo sapiens, UniProt Q9GZR1);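 further: Luminescence-based dose-response confirmatory assay of SENP6 inhibition, following up an ultra-high-throughput screen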
T1 sequence (Q9GZR1 whole entry): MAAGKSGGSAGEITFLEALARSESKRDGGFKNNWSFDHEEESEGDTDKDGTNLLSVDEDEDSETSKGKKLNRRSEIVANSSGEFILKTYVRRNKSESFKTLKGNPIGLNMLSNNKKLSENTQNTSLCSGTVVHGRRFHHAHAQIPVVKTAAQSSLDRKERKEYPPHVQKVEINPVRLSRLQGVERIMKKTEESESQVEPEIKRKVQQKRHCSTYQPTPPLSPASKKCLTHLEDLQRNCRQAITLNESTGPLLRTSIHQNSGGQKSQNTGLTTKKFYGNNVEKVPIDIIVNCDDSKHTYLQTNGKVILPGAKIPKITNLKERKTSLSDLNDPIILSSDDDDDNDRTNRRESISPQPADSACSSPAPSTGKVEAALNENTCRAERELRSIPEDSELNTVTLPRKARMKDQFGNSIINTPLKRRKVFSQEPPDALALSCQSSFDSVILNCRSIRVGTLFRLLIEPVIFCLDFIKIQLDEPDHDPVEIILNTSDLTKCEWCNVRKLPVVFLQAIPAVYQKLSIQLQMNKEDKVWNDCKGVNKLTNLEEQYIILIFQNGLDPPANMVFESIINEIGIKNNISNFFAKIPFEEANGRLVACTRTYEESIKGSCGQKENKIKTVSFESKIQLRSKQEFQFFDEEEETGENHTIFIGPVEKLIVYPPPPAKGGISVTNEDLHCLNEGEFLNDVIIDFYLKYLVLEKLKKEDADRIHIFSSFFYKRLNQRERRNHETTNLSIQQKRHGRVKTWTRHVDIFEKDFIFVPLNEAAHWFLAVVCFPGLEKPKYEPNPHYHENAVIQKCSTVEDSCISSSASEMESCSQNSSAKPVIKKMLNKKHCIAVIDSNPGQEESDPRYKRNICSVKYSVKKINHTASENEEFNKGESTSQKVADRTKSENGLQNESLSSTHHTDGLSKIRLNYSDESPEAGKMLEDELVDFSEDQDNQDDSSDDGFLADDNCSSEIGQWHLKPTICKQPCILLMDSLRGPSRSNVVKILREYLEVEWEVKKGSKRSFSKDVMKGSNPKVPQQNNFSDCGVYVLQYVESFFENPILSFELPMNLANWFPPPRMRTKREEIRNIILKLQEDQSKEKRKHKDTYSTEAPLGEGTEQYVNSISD

[2] = biological target: T2, Sentrin-specific protease 8 (Homo sapiens, UniProt Q96LD8);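 further: luminescence read-out of SENP8 inhibition, dose-response confirmation following an ultra-high-throughput screen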
T2 sequence (Q96LD8 whole entry): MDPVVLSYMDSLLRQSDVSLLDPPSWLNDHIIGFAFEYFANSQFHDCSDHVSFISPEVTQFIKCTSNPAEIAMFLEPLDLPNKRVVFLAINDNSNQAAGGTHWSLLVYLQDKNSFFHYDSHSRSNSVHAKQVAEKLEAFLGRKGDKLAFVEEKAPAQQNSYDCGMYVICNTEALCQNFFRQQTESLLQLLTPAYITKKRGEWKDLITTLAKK

INS1 = assay: INS-1E survival protection against cytokine death – cell-based, luminescence, retest, dose response (AID 449756); conditions: Rattus norvegicus;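 further: cell death triggered by IL-1 beta plus TNF-alpha plus IFN-gamma mixture; protective hits raise ATP signal compared with cytokine alone wells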
[3] = biological target: Glucose-6-phosphate 1-dehydrogenase (Homo sapiens, UniProt P11413); assay: inhibition of Homo sapiens G6PD, dose series – biochemical, fluorescence, selectivity assay for P. falciparum G6PD inhibitor project, dose response (AID 504792)
Sequence of Glucose-6-phosphate 1-dehydrogenase (P11413 whole entry): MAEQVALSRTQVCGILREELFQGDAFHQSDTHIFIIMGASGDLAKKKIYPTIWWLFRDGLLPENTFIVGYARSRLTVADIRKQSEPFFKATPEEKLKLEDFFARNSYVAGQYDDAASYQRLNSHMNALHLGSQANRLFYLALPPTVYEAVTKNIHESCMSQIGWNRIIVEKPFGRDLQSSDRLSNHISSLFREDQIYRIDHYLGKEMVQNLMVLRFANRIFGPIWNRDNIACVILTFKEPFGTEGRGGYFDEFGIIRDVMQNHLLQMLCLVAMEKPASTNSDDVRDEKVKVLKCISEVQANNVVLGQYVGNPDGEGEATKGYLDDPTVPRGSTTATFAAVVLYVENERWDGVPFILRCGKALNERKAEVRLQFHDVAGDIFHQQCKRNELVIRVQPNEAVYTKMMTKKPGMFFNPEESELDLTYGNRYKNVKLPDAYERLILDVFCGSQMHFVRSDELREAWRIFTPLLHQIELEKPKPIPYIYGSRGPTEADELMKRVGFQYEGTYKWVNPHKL

Compound: CC(C)=CCC1=C(OCC(=O)O)C(=O)c2ccccc2C1=O
- IC50 [1]: 2.53 µM (active)
- IC50 [2]: 3.91 µM (active)

Compound: Cc1cccc(NC2=C(NC(=O)c3ccccc3)C(=O)c3ccccc3C2=O)c1
- AC50 (INS1): 7.52 µM (active)
- IC50 [3]: > 80 µM (inactive)
